Reference: patent US8853259B2, “Metformin derivatives for treating diabetes and diabetes complications” (priority 2013, dated 2014)

Assay: Hygroscopicity of the isolated solid on exposure to air
Type: physicochemical
Settings: light yellow foamy solid from Method 1; turns into gummy residue on exposure to air
Description: Method 1: Metformin free base (1.29 g, 0.010 mol) was taken in methanol (15 mL) and while stirring L-Glutamic acid (0.74 g, […]) was added as solid. Lipoic acid (1.03 g, […]) was separately dissolved in methanol (15 mL) and added to this mixture through a in-line syringe filter (to remove polymeric material, if any). The mixture was continued to stir for 30 min. […] Metformin.L-Glutamic acid.R-Lipoic acid salt (2.9 g) was obtained as light yellow foamy solid. […] The residue was suspended in acetonitrile (30 mL) and stirred for 18 h. Filtered the pale yellow solid and dried in vacuum for 16 h to get 2.32 g of 3. ^1H NMR (200 MHz, D2O) δ 1.15-2.1 (10H, m), δ 2.1-2.42 (5H, m), δ2.88 (12H, s), δ 2.95-3.12 (1H, m) δ 3.48-3.62 (2H, m); ^13C NMR (200 MHz, D2O) δc 25.86, 27.25, 28.68, 33.81, 34.14, 37.66, 38.34, 40.51, 54.95, 56.93, 158.63, 160.28, 174.80, 181.44, 183.81.

**Q.** With “metformin-L-glutamic acid-R (+) lipoic acid salt” as the substance, how does the hygroscopicity read?
**A.** high hygroscopic
